Measured values as given in PubChem BioAssay AID602147 (Vanderbilt Specialized Chemistry Center, 2011).

These molecules were tested against Phospholipase D2 (Homo sapiens) (UniProt O14939) (assay: PLD2 inhibitor potency in cells, dose response (AID 602147)). Details: cellular PLD2 activity assay, concentration response.
Sequence of Phospholipase D2 (Homo sapiens) (O14939 whole entry, looked up): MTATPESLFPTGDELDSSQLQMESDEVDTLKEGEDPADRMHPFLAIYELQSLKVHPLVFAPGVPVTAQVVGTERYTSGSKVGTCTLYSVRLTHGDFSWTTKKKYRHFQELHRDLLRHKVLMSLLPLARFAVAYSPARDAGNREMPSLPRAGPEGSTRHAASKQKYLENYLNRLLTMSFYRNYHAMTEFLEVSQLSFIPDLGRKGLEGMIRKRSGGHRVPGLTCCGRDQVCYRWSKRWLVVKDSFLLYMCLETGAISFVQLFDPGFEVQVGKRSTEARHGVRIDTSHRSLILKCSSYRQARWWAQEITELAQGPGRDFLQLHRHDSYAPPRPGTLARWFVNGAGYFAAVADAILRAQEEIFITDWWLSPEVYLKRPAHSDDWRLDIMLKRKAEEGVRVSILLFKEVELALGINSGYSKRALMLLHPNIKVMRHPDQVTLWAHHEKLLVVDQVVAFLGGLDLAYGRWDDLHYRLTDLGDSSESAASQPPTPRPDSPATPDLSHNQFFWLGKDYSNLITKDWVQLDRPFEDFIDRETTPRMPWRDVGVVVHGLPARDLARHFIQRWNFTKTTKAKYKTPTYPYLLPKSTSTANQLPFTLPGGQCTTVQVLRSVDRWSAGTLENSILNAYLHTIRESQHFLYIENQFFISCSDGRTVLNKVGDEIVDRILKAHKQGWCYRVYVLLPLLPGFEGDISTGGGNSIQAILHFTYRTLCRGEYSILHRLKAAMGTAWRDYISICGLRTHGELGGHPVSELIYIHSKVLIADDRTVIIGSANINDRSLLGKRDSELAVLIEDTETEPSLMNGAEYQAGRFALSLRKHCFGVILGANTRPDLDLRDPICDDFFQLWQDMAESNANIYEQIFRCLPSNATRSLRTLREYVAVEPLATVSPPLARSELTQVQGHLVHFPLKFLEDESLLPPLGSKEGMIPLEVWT
Sequence of Phospholipase D2 (Homo sapiens) (O14939 whole entry, looked up): as above
In the case of `O=C(NCCN1CCC2(CC1)C(=O)NCN2c1ccc(F)cc1)c1cnc2ccccc2c1`, the IC50 is reported as 40 nM.
With `O=C(NCCN1CCC2(CC1)C(=O)NCN2c1ccc(F)c(F)c1)c1ccc(F)cc1` the IC50 was 660 nM.
`O=C(NCCN1CCC2(CC1)C(=O)NCN2c1cccc(Cl)c1)c1cc2cc(F)ccc2[nH]1` gave an IC50 of 73 nM.
With `O=C(NCCN1CCC2(CC1)C(=O)NCN2c1ccc(Br)cc1)c1ccc(F)cc1` the IC50 was 8000 nM.
`O=C(NCCN1CCC2(CC1)C(=O)NCN2c1ccc(Br)cc1)c1ccc2ccccc2c1` showed an IC50 of 350 nM.
`O=C(NCCN1CCC2(CC1)C(=O)NCN2c1cccc(F)c1)c1ccc(F)cc1` gave an IC50 of 6690 nM.
With `O=C(C#Cc1ccccc1)NCCN1CCC2(CC1)C(=O)NCN2c1ccccc1` the IC50 was 1640 nM.
In the case of `O=C(NCCN1CCC2(CC1)C(=O)NCN2c1ccc(Cl)cc1)c1ccc(F)cc1`, the IC50 is reported as 5670 nM.
`O=C(NCCN1CCC2(CC1)C(=O)NCN2c1ccc(Cl)cc1)c1ccc2ccccc2c1` showed an IC50 of 655 nM.
Work on `O=C(NCCN1CCC2(CC1)C(=O)NCN2c1ccc(F)cc1)c1ccc2ccccc2c1` yielded an IC50 of 80 nM.
In the case of `O=C(NCCN1CCC2(CC1)C(=O)NCN2c1ccc(F)cc1)c1ccc(F)cc1`, the IC50 is reported as 610 nM.
Work on `O=C(NCCN1CCC2(CC1)C(=O)NCN2c1cccc(F)c1)c1cc2cc(F)ccc2[nH]1` yielded an IC50 of 25 nM.
For `O=C(NCCN1CCC2(CC1)C(=O)NCN2c1cccc(F)c1)c1cnc2ccccc2c1`, the IC50 was 63 nM.
`O=C(NCCN1CCC2(CC1)C(=O)NCN2c1cccc(Cl)c1)c1cnc2ccccc2c1` showed an IC50 of 165 nM.
For `O=C(NCCN1CCC2(CC1)C(=O)NCN2c1ccccc1)c1cc2ccccc2s1`, the IC50 was 30 nM.
Work on `COc1cc(C(=O)NCCN2CCC3(CC2)C(=O)NCN3c2ccccc2)ccc1N` yielded an IC50 of 550 nM.
In the case of `O=C(NCCN1CCC2(CC1)C(=O)NCN2c1ccc(Cl)cc1)c1cnc2ccccc2c1`, the IC50 is reported as 200 nM.
In the case of `O=C(NCCN1CCC2(CC1)C(=O)NCN2c1cccc(Cl)c1)c1ccc(F)cc1`, the IC50 is reported as 70 nM.
`O=C(NCCN1CCC2(CC1)C(=O)NCN2c1ccc(Br)cc1)c1cnc2ccccc2c1` showed an IC50 of 360 nM.
With `C[C@@H](CN1CCC2(CC1)C(=O)NCN2c1cccc(F)c1)NC(=O)c1ccc2ccccc2c1` the IC50 was 60 nM.
Work on `O=C(NCCN1CCC2(CC1)C(=O)NCN2c1ccc(Br)cc1)c1cc2cc(F)ccc2[nH]1` yielded an IC50 of 100 nM.
`O=C(NCCN1CCC2(CC1)C(=O)NCN2c1cccc(Cl)c1)c1ccc2ccccc2c1` was tested, and the IC50 was 290 nM.
For `O=C(NCCN1CCC2(CC1)C(=O)NCN2c1ccc(Cl)cc1)c1cc2cc(F)ccc2[nH]1`, the IC50 was 50 nM.
